Measured values reported in ChEMBL document CHEMBL1201862, “PubChem BioAssay data set” (2004).
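Method: 48-hour compound exposure of cells in 96-well plates, five concentrations, linear interpolation of endpoints. The concentration for 50% growth inhibition is given as GI50.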 The source made the active and inactive calls. Rule as the data show it: active = GI50 up to about 1.1 µM and inactive = higher.

How the values were obtained:
Assay in all cases: inhibition of tumour cell growth, NCI panel, 48 h
KM-20L2 = test system: KM-20L2
HOP-18 = test system: HOP-18
XF498 = test system: XF498
DMS-114 = test system: DMS-114
M19-MEL = test system: M19-MEL
SNB-78 = test system: SNB-78
DLD-1 = test system: DLD-1
RXF 631 = test system: RXF 631
BT-549 = test system: BT-549

Structure (SMILES): CCOC(=O)NC1CC2CCC1(OC)C=C2C (stereo unspecified)
- GI50 (KM-20L2): > 100 µM (inactive)
- GI50 (HOP-18): > 100 µM (inactive)
- GI50 (XF498): > 100 µM (inactive)
- GI50 (DMS-114): > 100 µM (inactive)
- GI50 (M19-MEL): > 100 µM (inactive)
- GI50 (SNB-78): > 100 µM (inactive)
- GI50 (DLD-1): > 100 µM (inactive)

Structure (SMILES): COC(=O)c1nc(N)nc(C(=O)OC)c1C(=O)c1ccccc1
- GI50 (KM-20L2): > 100 µM (inactive)
- GI50 (RXF 631): > 100 µM (inactive)
- GI50 (HOP-18): > 100 µM (inactive)
- GI50 (XF498): > 100 µM (inactive)
- GI50 (DMS-114): > 100 µM (inactive)
- GI50 (M19-MEL): > 100 µM (inactive)
- GI50 (DLD-1): > 100 µM (inactive)

Structure (SMILES): COc1cc([C@@H]2c3cc4c(cc3[C@@H](NC(=O)c3ccc(C(C)=O)cc3)C3COC(=O)[C@@H]32)OCO4)cc(OC)c1O (stereo partly specified)
- GI50 (KM-20L2): 0.724 µM (active)
- GI50 (RXF 631): 1.24 µM (inactive)
- GI50 (HOP-18): > 100 µM (inactive)
- GI50 (XF498): 0.347 µM (active)
- GI50 (DMS-114): 0.659 µM (active)
- GI50 (M19-MEL): 3.01 µM (inactive)
- GI50 (SNB-78): 8.99 µM (inactive)
- GI50 (DLD-1): 1.4 µM (inactive)

Structure (SMILES): COc1ccc(OC(C(=O)O)C(C)C)c2c1CCCC2=O (stereo unspecified)
- GI50 (KM-20L2): > 100 µM (inactive)
- GI50 (RXF 631): > 100 µM (inactive)
- GI50 (HOP-18): > 100 µM (inactive)
- GI50 (XF498): > 100 µM (inactive)
- GI50 (DMS-114): > 100 µM (inactive)
- GI50 (M19-MEL): > 100 µM (inactive)
- GI50 (SNB-78): > 100 µM (inactive)
- GI50 (DLD-1): > 100 µM (inactive)

Structure (SMILES): CC1=CC(C)(C)N=C2SC(c3ccc(N)cc3)=NN12
- GI50 (KM-20L2): 46.6 µM (inactive)
- GI50 (RXF 631): 50.7 µM (inactive)
- GI50 (HOP-18): 1.47 µM (inactive)
- GI50 (XF498): 50.9 µM (inactive)
- GI50 (DMS-114): 32.7 µM (inactive)
- GI50 (M19-MEL): 63.1 µM (inactive)
- GI50 (SNB-78): > 100 µM (inactive)
- GI50 (DLD-1): 40.1 µM (inactive)

Structure (SMILES): CC1=C2O[B-](c3ccccc3)(c3ccccc3)[O+]=C2C=CN1
- GI50 (KM-20L2): 62.1 µM (inactive)
- GI50 (RXF 631): 44.9 µM (inactive)
- GI50 (XF498): 12.5 µM (inactive)
- GI50 (DMS-114): 38.7 µM (inactive)
- GI50 (M19-MEL): 62.4 µM (inactive)
- GI50 (SNB-78): 51.8 µM (inactive)
- GI50 (DLD-1): 33.4 µM (inactive)

Structure (SMILES): COc1ccc(N2C(=O)[C@@H]3[C@@H]4CC(C)CC[C@@H]4c4c([nH]c5ccccc45)[C@@H]3C2=O)cc1 (stereo partly specified)
- GI50 (KM-20L2): > 54.8 µM (inactive)
- GI50 (HOP-18): 4.4 µM (inactive)
- GI50 (XF498): 8.3 µM (inactive)
- GI50 (DMS-114): 31.1 µM (inactive)
- GI50 (M19-MEL): > 70.1 µM (inactive)
- GI50 (SNB-78): 3.76 µM (inactive)
- GI50 (DLD-1): 29.5 µM (inactive)

Structure (SMILES): CN(/N=C/c1cccc2cccnc12)c1ccccc1
- GI50 (KM-20L2): > 100 µM (inactive)
- GI50 (HOP-18): > 100 µM (inactive)
- GI50 (XF498): > 100 µM (inactive)
- GI50 (DMS-114): > 100 µM (inactive)
- GI50 (M19-MEL): > 100 µM (inactive)
- GI50 (SNB-78): > 100 µM (inactive)
- GI50 (DLD-1): > 100 µM (inactive)

Structure (SMILES): O=C(Nc1c(Cl)cc([N+](=O)[O-])cc1Cl)C(=O)C(C1OC(=O)c2ccccc21)[N+](=O)[O-] (stereo unspecified)
- GI50 (KM-20L2): > 100 µM (inactive)
- GI50 (RXF 631): > 100 µM (inactive)
- GI50 (XF498): > 100 µM (inactive)
- GI50 (DMS-114): 92.3 µM (inactive)
- GI50 (M19-MEL): > 100 µM (inactive)
- GI50 (SNB-78): 41.2 µM (inactive)
- GI50 (DLD-1): > 100 µM (inactive)

Structure (SMILES): NC12CC3CC(C1)CC(Cl)(C3)C2
- GI50 (KM-20L2): > 100 µM (inactive)
- GI50 (RXF 631): > 100 µM (inactive)
- GI50 (XF498): > 100 µM (inactive)
- GI50 (DMS-114): > 100 µM (inactive)
- GI50 (M19-MEL): > 100 µM (inactive)
- GI50 (SNB-78): > 100 µM (inactive)
- GI50 (DLD-1): > 100 µM (inactive)

Structure (SMILES): Cc1noc(/N=C2\C=C(Nc3onc(C)c3C)C(=O)c3ccccc32)c1C
- GI50 (KM-20L2): > 100 µM (inactive)
- GI50 (RXF 631): > 100 µM (inactive)
- GI50 (HOP-18): 85.9 µM (inactive)
- GI50 (XF498): > 100 µM (inactive)
- GI50 (DMS-114): 15.3 µM (inactive)
- GI50 (M19-MEL): 3.98 µM (inactive)
- GI50 (SNB-78): > 100 µM (inactive)
- GI50 (DLD-1): 96.8 µM (inactive)

Structure (SMILES): O=C(CCN(C(=O)O)S(=O)(=O)c1ccc(NC(=O)c2ccccc2)cc1)NC1CCCCC1
- GI50 (KM-20L2): > 100 µM (inactive)
- GI50 (HOP-18): > 100 µM (inactive)
- GI50 (XF498): > 100 µM (inactive)
- GI50 (DMS-114): > 100 µM (inactive)
- GI50 (M19-MEL): 59.7 µM (inactive)
- GI50 (SNB-78): > 100 µM (inactive)
- GI50 (DLD-1): 62.5 µM (inactive)

Structure (SMILES): CC(=O)OCC1OC(n2cc([N+](=O)[O-])c(=O)[nH]c2=O)C(OC(C)=O)C(OC(C)=O)C1OC(C)=O (stereo unspecified)
- GI50 (KM-20L2): > 100 µM (inactive)
- GI50 (HOP-18): 43.2 µM (inactive)
- GI50 (XF498): > 100 µM (inactive)
- GI50 (DMS-114): > 100 µM (inactive)
- GI50 (M19-MEL): > 100 µM (inactive)
- GI50 (DLD-1): > 100 µM (inactive)

Structure (SMILES): COc1ccc2c(c1)[n+]([O-])c(-c1c(Cl)cccc1Cl)c(N)[n+]2[O-]
- GI50 (KM-20L2): 42.2 µM (inactive)
- GI50 (RXF 631): 25.3 µM (inactive)
- GI50 (XF498): 24.6 µM (inactive)
- GI50 (DMS-114): 34.4 µM (inactive)
- GI50 (M19-MEL): 40.3 µM (inactive)
- GI50 (SNB-78): 69.3 µM (inactive)
- GI50 (DLD-1): 39.4 µM (inactive)

Structure (SMILES): O=C1C(c2ccc([N+](=O)[O-])cc2)=C(Cl)C(=O)c2c(O)cccc21
- GI50 (HOP-18): 5.05 µM (inactive)
- GI50 (XF498): 10.6 µM (inactive)
- GI50 (DMS-114): 7.31 µM (inactive)
- GI50 (BT-549): 17.1 µM (inactive)
- GI50 (M19-MEL): 18.2 µM (inactive)
- GI50 (SNB-78): 25.5 µM (inactive)
- GI50 (DLD-1): 11 µM (inactive)

Structure (SMILES): CC(C)=CCCC(C)[C@H]1CC(O)C2(C)C3=CCC4C(C)(C)[C@@H](O)CC[C@]4(C)C3=CC[C@]12C (stereo partly specified)
- GI50 (KM-20L2): 6.58 µM (inactive)
- GI50 (RXF 631): 4.34 µM (inactive)
- GI50 (HOP-18): 13.7 µM (inactive)
- GI50 (XF498): 8.34 µM (inactive)
- GI50 (DMS-114): 10 µM (inactive)
- GI50 (M19-MEL): 4.51 µM (inactive)
- GI50 (SNB-78): 7.13 µM (inactive)
- GI50 (DLD-1): 3.87 µM (inactive)
